From patent US10301259B2, “Beta-cryptoxanthin from plant source and a process for its preparation” (OMNIACTIVE HEALTH TECHNOLOGIES LIMITED, priority 2013, dated 2019)

Experiments:
[1] = under similar conditions; Burri et al. (2011); cited from earlier work
OVX rat model = test: Anti-resorptive / anti-osteoporotic activity in OVX rat model (overall conclusions); assay type: in vivo, Wistar rats

In the case of `CC1=C(/C=C/C(C)=C/C=C/C(C)=C/C=C/C=C(C)/C=C/C=C(C)/C=C/C2=C(C)CC(O)CC2(C)C)C(C)(C)CCC1` (stereo not drawn) [beta-cryptoxanthin, beta,beta-caroten-3-ol], the “Bioavailability relative to beta-carotene” value [1] is listed as ~7 fold and the Anti-osteoporotic activity (OVX rat model) is listed as “significant anti-osteoporotic activity”.
